Measurements: ChEMBL document CHEMBL3045834 (Med Chem Res, 2004)

Assays:
Rattus norvegicus [1] = species on record: Rattus norvegicus; assay: Selectivity ratio for antagonist activity at alpha1D adrenergic receptor in Rattus norvegicus (rat) aorta to antagonist activity at alpha1A adrenergic receptor in vas deferens
Rattus norvegicus [2] = species on record: Rattus norvegicus; assay: Selectivity ratio for antagonist activity at alpha1B adrenergic receptor in Rattus norvegicus (rat) spleen to antagonist activity at alpha1D adrenergic receptor in aorta; type: tissue-based
Rattus norvegicus [3] = species on record: Rattus norvegicus; assay: Selectivity ratio for antagonist activity at alpha1B adrenergic receptor in Rattus norvegicus (rat) spleen to antagonist activity at alpha1A adrenergic receptor in rat vas deferens; type: tissue-based
[4] = molecular target: T1, Alpha-1D adrenergic receptor (Rattus norvegicus, UniProt P23944); assay: Competitive antagonist activity at alpha1D adrenergic receptor in Rattus norvegicus (rat) aorta assessed as inhibition of (-)-noradrenaline-induced contraction; details: read-out: pA2 (converted)
T1 sequence (P23944 whole entry): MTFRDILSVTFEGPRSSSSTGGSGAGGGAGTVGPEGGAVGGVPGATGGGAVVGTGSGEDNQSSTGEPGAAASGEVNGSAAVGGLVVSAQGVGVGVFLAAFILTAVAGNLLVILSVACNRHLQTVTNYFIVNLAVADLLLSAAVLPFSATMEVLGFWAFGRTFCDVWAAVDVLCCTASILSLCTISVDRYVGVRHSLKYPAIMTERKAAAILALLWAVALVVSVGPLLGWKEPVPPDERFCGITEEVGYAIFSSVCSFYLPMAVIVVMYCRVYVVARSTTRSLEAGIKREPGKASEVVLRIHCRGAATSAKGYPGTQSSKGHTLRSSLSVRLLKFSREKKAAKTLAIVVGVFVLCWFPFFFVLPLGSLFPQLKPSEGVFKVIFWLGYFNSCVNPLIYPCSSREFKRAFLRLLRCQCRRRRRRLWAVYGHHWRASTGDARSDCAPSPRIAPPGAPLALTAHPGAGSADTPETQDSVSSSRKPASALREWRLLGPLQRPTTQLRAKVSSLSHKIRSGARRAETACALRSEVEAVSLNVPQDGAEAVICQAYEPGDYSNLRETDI

[5] = molecular target: T2, Alpha-1B adrenergic receptor (Rattus norvegicus) (UniProt P15823); assay: Noncompetitive antagonist activity at alpha1B adrenergic receptor in Rattus norvegicus (rat) spleen assessed as inhibition of (-)-phenylephrine-induced contraction
T2 sequence (whole entry): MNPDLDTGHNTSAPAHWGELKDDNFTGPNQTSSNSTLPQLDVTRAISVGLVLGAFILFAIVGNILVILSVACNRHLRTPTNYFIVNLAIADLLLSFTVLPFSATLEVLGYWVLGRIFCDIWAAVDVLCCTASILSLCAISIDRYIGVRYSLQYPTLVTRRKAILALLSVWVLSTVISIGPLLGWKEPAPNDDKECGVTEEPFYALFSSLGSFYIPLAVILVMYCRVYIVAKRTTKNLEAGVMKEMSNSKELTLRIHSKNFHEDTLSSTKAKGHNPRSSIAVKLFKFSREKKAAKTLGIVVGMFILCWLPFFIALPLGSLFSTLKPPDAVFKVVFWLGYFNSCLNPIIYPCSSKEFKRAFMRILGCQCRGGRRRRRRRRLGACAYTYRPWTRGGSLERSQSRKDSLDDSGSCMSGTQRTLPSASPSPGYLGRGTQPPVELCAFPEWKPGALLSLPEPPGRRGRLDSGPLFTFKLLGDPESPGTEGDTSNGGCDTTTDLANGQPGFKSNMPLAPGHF

[6] = molecular target: T3, Alpha-1A adrenergic receptor (Rattus norvegicus) (UniProt P43140); assay: Noncompetitive antagonist activity at alpha1A adrenergic receptor in Rattus norvegicus (rat) vas deferens assessed as inhibition of (-)-noradrenaline-induced contraction
T3 sequence (whole entry): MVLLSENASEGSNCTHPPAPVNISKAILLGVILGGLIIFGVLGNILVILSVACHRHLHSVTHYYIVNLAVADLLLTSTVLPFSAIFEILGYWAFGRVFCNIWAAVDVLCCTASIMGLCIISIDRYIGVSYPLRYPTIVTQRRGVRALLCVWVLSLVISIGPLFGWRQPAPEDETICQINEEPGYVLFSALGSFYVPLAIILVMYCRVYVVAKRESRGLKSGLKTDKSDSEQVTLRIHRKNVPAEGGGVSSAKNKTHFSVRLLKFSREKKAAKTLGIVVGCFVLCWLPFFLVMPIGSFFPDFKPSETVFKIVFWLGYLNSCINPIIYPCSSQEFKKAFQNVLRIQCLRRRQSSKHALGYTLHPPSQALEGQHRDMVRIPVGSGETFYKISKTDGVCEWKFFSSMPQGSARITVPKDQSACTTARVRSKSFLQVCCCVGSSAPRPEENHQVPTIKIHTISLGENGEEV

[7] = molecular target: T4, Alpha-1D adrenergic receptor (Homo sapiens, UniProt P25100); assay: Displacement of [3H]prazosin from Homo sapiens (human) alpha1D adrenergic receptor
T4 sequence (P25100 whole entry): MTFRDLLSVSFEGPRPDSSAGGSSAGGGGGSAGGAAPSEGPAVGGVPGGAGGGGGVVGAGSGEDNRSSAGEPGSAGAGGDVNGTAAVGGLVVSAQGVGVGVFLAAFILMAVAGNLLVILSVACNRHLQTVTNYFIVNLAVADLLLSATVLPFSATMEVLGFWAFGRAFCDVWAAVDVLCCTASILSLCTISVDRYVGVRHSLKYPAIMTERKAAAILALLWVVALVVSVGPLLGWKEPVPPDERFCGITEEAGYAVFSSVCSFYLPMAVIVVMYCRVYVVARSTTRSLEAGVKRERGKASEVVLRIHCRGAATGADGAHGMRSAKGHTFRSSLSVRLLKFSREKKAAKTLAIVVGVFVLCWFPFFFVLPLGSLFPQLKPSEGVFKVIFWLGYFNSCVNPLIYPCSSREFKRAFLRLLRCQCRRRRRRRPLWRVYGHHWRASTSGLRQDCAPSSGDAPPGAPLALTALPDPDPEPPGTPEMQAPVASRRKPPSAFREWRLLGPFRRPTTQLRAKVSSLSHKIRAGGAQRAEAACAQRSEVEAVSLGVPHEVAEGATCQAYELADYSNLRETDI

[8] = molecular target: T5, Alpha-1B adrenergic receptor (Homo sapiens, UniProt P35368); assay: Displacement of [3H]prazosin from Homo sapiens (human) alpha1B adrenergic receptor
T5 sequence (P35368 whole entry): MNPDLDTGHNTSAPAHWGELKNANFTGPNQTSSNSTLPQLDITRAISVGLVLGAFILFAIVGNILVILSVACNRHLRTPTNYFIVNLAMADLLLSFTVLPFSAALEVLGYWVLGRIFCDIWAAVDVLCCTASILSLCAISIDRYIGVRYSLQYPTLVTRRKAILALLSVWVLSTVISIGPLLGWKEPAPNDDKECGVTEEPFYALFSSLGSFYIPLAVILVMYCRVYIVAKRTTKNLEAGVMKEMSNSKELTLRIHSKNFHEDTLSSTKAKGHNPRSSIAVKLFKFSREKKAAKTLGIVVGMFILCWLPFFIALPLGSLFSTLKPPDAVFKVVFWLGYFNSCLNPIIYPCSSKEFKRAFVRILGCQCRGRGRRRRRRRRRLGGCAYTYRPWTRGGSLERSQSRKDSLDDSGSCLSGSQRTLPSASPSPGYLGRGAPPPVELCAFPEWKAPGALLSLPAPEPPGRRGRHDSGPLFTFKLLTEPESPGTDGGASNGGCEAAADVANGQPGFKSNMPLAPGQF

[9] = molecular target: T6, Alpha-1A adrenergic receptor (Homo sapiens, UniProt P35348); assay: Displacement of [3H]prazosin from Homo sapiens (human) alpha1A adrenergic receptor
T6 sequence (P35348 whole entry): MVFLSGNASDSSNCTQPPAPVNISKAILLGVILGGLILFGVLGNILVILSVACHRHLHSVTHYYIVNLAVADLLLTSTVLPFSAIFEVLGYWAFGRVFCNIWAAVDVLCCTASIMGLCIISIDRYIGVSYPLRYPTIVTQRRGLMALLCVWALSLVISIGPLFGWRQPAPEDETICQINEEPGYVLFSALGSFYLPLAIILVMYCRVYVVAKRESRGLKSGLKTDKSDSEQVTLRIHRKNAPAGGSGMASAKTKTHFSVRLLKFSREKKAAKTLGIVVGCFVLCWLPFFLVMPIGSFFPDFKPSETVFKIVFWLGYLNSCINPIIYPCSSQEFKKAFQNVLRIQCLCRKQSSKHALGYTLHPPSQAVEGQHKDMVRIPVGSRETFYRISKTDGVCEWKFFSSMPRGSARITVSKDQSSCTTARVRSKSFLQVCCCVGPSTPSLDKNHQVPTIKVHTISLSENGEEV

[10] = molecular target: T7, Alpha-1A adrenergic receptor (Rattus norvegicus, UniProt P43140); assay: Competitive antagonist activity at alpha1A adrenergic receptor in Rattus norvegicus (rat) vas deferens assessed as inhibition of (-)-noradrenaline-induced contraction; details: read-out: pA2 (converted)
T7 sequence (P43140 whole entry): T3 sequence (whole entry)

[11] = molecular target: T7, Alpha-1A adrenergic receptor; assay: Antagonist activity at alpha1A adrenoreceptor in Rattus norvegicus (rat) small mesenteric artery; details: read-out: pA2 (converted)
[12] = molecular target: T5, Alpha-1B adrenergic receptor; assay: Binding affinity to alpha1B adrenoreceptor (unknown origin) by radioligand binding assay

| Selectivity ratio (Rattus norvegicus [1]) | Selectivity ratio (Rattus norvegicus [3]) | Kb [4] | pKb [5] | pKb [6] | Ki [7] | Ki [8] | Ki [9] | Kb [10] | Kb [11] | Ki [12] | SMILES | Selectivity ratio (Rattus norvegicus [2]) |
| --- | --- | --- | --- | --- | --- | --- | --- | --- | --- | --- | --- | --- |
| 2.3 | 407 | 91.2 nM | 9.28 | 6.67 | 4.79 nM | 0.871 nM | 23.4 nM | – | – | – | COc1cc2nc(N3CCN(C(=O)c4ccc(C)o4)[C@H]4CCCC[C@@H]43)nc(N)c2cc1OC | 174 |
| 0.5 | 199 | 58.9 nM | 9.83 | 7.53 | 1.55 nM | 0.309 nM | 3.47 nM | – | – | – | COc1cc2nc(N3CCN(C(=O)c4ccc(Br)o4)[C@H]4CCCC[C@@H]43)nc(N)c2cc1OC | 398 |
| 1.6 | 724 | 89.1 nM | 9.71 | – | 3.63 nM | 0.871 nM | 27.5 nM | 141 nM | – | – | COc1ccc(C(=O)N2CCN(c3nc(N)c4cc(OC)c(OC)cc4n3)[C@H]3CCCC[C@@H]32)o1 | 457 |
| – | – | – | – | – | – | – | – | – | 16.6 nM | 0.692 nM | COc1cc2nc(N3CCN(C(=O)c4ccco4)[C@H]4CCCC[C@H]43)nc(N)c2cc1OC [(+)-CYCLAZOSIN] | – |
| 0.2 | 302 | 214 nM | 9.85 | 7.37 | 7.41 nM | 1.38 nM | 25.7 nM | – | – | – | COc1cc2nc(N3CCN(C(=O)c4ccc(C(C)=O)o4)[C@H]4CCCC[C@@H]43)nc(N)c2cc1OC | 1510 |
